In US12053459B2, “CDK2 inhibitors and methods of using the same” (Cedilla Therapeutics, Inc., priority 2021, dated 2024):

Tests used:
[1] = tested on: Kuramochi cells; experiment: BrdU cell proliferation assay (colorimetric ELISA), Kuramochi cells; type: cell-based; conditions: class symbols A-D
Protocol: A BrdU assay was used as a measure of proliferation based on the DNA replication process of proliferating cells. BrdU, a pyrimidine analog, is added to the cell culture and incorporated into the DNA of proliferating cells. The presence of the BrdU analog was then measured through a colorimetric ELISA. After fixation and permeabilization of cells, peroxidase-conjugated antibody recognizing BrdU is added and allowed to incubate, followed by thorough washing to remove unbound antibody. In order to quantify the amount of bound antibody, peroxidase substrate is added and produces a color that can be measured at 450 nm.
On day −1, Kuramochi cells (Sekisui XenoTech JCRB0098) were seeded at 2,000 cells/well in columns 2-12 of a 96 well plate (Corning, CLS3596) in 150 uL media and allowed to adhere overnight at 37 degree with 5% CO2. In order to assess specificity of the compounds, Kuramochi RB^KO cells were also plated and treated, as RB^KO cells were not expected to show a proliferative response to CCNE/CDK specific inhibitors.
On day 0, the source plate was prepared by adding 10 mM compounds and performing 3-fold serial dilutions for a 4-point dose response of each compound. Using a multichannel pipette, 2 uL of the contents of the source plate were stamped into an intermediate plate with 500 uL of RPMI 1640 Media, GlutaMAX Supplement (Life Technologies, 61870127) in each well of a Nunc 96 DeepWell™ plate, non-treated 96 DeepWell plate, 2 mL/well, sterile, natural, 60/cs (Sigma Z717274) and mixed thoroughly. 50 uL from row A of this intermediate plate were added to rows A-H of one plate of previously seeded Kuramochi cells, and each subsequent row of the intermediate plate was added to a full plate of cells.
On day 4, the plates were developed using the BrdU ELISA Cell Proliferation Assay according to manufacturer's instructions (Roche, 11647229001). Briefly, BrdU was diluted 1:100 in Gibco®, Opti-MEM® and 20 μL/well was added, shaken for 10 minutes at 350 rpm, and then returned to the incubator for 1 hour. Following incubation, the medium was discarded, and the cells were fixed by adding 200 μL of Fix/Denature solution. The anti-BrdU peroxidase antibody was diluted 1:1000 in OptiMEM, added at 100 μL/well, and incubated while shaking (350 rpm) for one hour. Three washes with PBS were performed to remove any unbound antibody, followed by the addition of 100 μL of substrate solution to each well. […] was then added to halt the reaction, and plates were read out using an Envision spectrophotometer (Perkin Elmer) set to read 450 nm absorbance. Background absorbance values from empty wells were subtracted from all samples and then normalized to DMSO treated wells.

[2] = molecular target: CDK2/Cyclin E1(14-475) (Homo sapiens, UniProt P24941); experiment: Caliper LabChip EZ Reader mobility shift assay, inhibition of CDK2/Cyclin E1 activity; type: biochemical; conditions: class symbols A-D
Protocol: Inhibition of CDK2/Cyclin E1 activity in the presence of compounds of the present disclosure was evaluated using a Caliper LabChip® EZ Reader mobility shift assay. In the assay, activated CDK2/Cyclin E1 catalyzes the phosphorylation of a fluorescently tagged peptide 5-FAM-QSPKKG-CONH2 (PerkinElmer, FL Peptide 18) which induces a difference in capillary electrophoresis mobility. The peptide substrate and product were measured, and the conversion ratio was used to determine the inhibition (as % activity and IC50 values) of CDK2/Cyclin E1. Reactions contained 50 mM HEPES pH 7.5, 10 mM MgCl2, 1 mM EDTA, 2 mM DTT, 0.01% Brij35, 0.5 mg/mL BSA, 0.1% DMSO, 2.5 nM CDK2/Cyclin E1(14-475), 100 μM ATP, and 1.5 μM fluorescent peptide substrate.
Dose titrations of inhibitors in 100% DMSO were combined with 3.25 nM CDK2/Cyclin E1(14-475) and 130 μM of ATP in reaction buffer. The mixtures were incubated for 30 minutes before the addition of fluorescent peptide substrate to initiate the kinase reaction. The final conditions were 2.5 nM CDK2/Cyclin E1(14-475), 100 μM ATP, and 1.5 μM fluorescent peptide. The reactions were stopped after 100 minutes with the addition of EDTA (6 mM final EDTA concentration). The stopped reactions were analyzed on a Caliper LabChip® EZ Reader II. The conversion ratios were normalized to yield % activity, plotted against compound concentration, and fit to a four-parameter equation to determine the IC50 for each compound.

IC50 [2] [µM]	SMILES	IC50 [1] [µM]
> 10	CNC(=O)[C@H](CCCc1ccccc1)NC(=O)C1CN(C(=O)C2(C)CCOCC2)CC2CN(C(=O)c3ccc(OC(C)C)c(OC)c3)CC21 (stereo partly drawn) [I-169]	> 10
> 10	CNC(=O)[C@H](CCCc1ccccc1)NC(=O)C1CN(C(=O)c2sc(C)nc2C)CC2CN(C(=O)c3ccc(OC(C)C)c(OC)c3)CC21 (stereo partly drawn) [I-185]	> 10
> 10	CNC(=O)[C@H](CCCc1ccccc1)NC(=O)C1CN(C(=O)Cc2c[nH]c3cc(Cl)ccc23)CC2CN(C(=O)c3cc4ccccc4[nH]3)CC21 (stereo partly drawn) [I-61]	> 10
> 10	CNC(=O)[C@H](CCCc1ccccc1)NC(=O)C1CN(C(=O)Cc2c[nH]c3cc(Cl)ccc23)CC2CN(C(=O)c3ccc4[nH]c(=O)oc4c3)CC21 (stereo partly drawn) [I-72]	> 10
> 10	CNC(=O)[C@H](NC(=O)C1CN(C(=O)Cc2c[nH]c3cc(Cl)ccc23)CC2CN(C(=O)c3ccc(OC(C)C)c(OC)c3)CC21)[C@@H](C)OCc1ccccc1 (stereo partly drawn) [I-92]	> 10
0.5 to 5	CNC(=O)[C@H](CCCc1ccccc1)NC(=O)C1CN(C(=O)Cc2c[nH]c3ccc(F)cc23)CC2CN(C(=O)c3ccc(OC(C)C)c(OC)c3)CC21 (stereo partly drawn) [I-173]	> 10
> 10	CNC(=O)[C@H](CCCc1ccccc1)NC(=O)C1CN(C(=O)Cc2ccc3ncccc3c2)CC2CN(C(=O)c3ccc(OC(C)C)c(OC)c3)CC21 (stereo partly drawn) [I-167]	> 10
> 10	CNC(=O)[C@H](CCCc1ccccc1)NC(=O)C1CN(C(=O)Cc2c[nH]c3cc(OCC4CC4)ccc23)CC2CN(C(=O)c3ccc(OC(C)C)c(OC)c3)CC21 (stereo partly drawn) [I-234]	> 10
0.5 to 5	COc1cc(C(=O)N2CC3CN(C(=O)Cc4c[nH]c5cc(Cl)ccc45)CC(C(=O)N[C@H]4CCCN(Cc5ccccc5)C4)C3C2)ccc1OC(C)C (single isomer, unassigned) [I-117]	> 10
> 10	CNC(=O)[C@H](CCCc1ccncc1)NC(=O)C1CN(C(=O)Cc2c[nH]c3cc(Cl)ccc23)CC2CN(C(=O)c3ccc(OC(C)C)c(OC)c3)CC21 (stereo partly drawn) [I-138]	> 10
> 10	CNC(=O)[C@H](NC(=O)C1CN(C(=O)Cc2c[nH]c3cc(Cl)ccc23)CC2CN(C(=O)c3ccc(OC(C)C)c(OC)c3)CC21)[C@H](C)OCC1CCCCC1 (stereo partly drawn) [I-129]	> 10
> 10	CNC(=O)[C@H](CCCc1ccccc1)NC(=O)C1CN(C(=O)c2cccc3cc[nH]c23)CC2CN(C(=O)c3ccc(OC(C)C)c(OC)c3)CC21 (stereo partly drawn) [I-213]	> 10

Further lines, the compound ahead of its results:

SMILES	IC50 [2] [µM]	IC50 [1] [µM]
CNC(=O)[C@H](CCCc1ccccc1)NC(=O)C1CN(C(=O)c2cc3cc(C)ccc3[nH]2)CC2CN(C(=O)c3ccc(OC(C)C)c(OC)c3)CC21 (stereo partly drawn) [I-162]	> 10	> 10
COc1cc(C(=O)N2CC3CN(C(=O)Cc4c[nH]c5cc(Cl)ccc45)CC(C(=O)N[C@@H](CCCc4cccc(O)c4)C(=O)NCCCCCN)C3C2)ccc1OC(C)C (single isomer, unassigned) [I-258]	> 10	> 10
CNC(=O)[C@H](CCCc1ccccc1)NC(=O)C1CN(C(=O)Cc2c[nH]c3cc(C#N)ccc23)CC2CN(C(=O)c3ccc(OC(C)C)c(OC)c3)CC21 (stereo partly drawn) [I-203]	0.5 to 5	> 10
CNC(=O)[C@H](CCCc1ccccc1)NC(=O)C1CN(C(=O)Cc2c[nH]c3ccc(Br)cc23)CC2CN(C(=O)c3ccc(OC(C)C)c(OC)c3)CC21 (stereo partly drawn) [I-237]	≤ 0.5	> 10
COc1cc(C(=O)N2CC3CN(C(=O)Cc4c[nH]c5cc(Cl)ccc45)CC(C(=O)NC(CCCc4ccccc4)c4ncccn4)C3C2)ccc1OC(C)C (stereo not drawn) [I-151]	≤ 0.5	0.5 to 5
CNC(=O)[C@H](CCCc1ccccc1)NC(=O)C1CN(C(=O)c2cc3ccccc3cn2)CC2CN(C(=O)c3ccc(OC(C)C)c(OC)c3)CC21 (stereo partly drawn) [I-160]	> 10	> 10
CNC(=O)[C@H](CCCc1ccccc1)NC(=O)C1CN(C(=O)Cc2c[nH]c3cc(Cl)ccc23)CC2CN(C(=O)c3ccc(OC(C)C)c4occc34)CC21 (stereo partly drawn) [I-85]	≤ 0.5	> 10
CNC(=O)[C@H](CCCc1ccccc1)NC(=O)C1CN(C(=O)c2c[nH]c3ccc(F)cc23)CC2CN(C(=O)c3ccc(OC(C)C)c(OC)c3)CC21 (stereo partly drawn) [I-190]	> 10	> 10
CNC(=O)[C@H](CCCc1ccccc1)NC(=O)C1CN(C(=O)Cc2c[nH]c3cc(Cl)ccc23)CC2CN(C(=O)c3ccc4cccnc4c3)CC21 (stereo partly drawn) [I-80]	> 10	> 10
CNC(=O)[C@H](CCCc1ccccc1)NC(=O)C1CN(C(=O)Cc2ccncc2)CC2CN(C(=O)c3ccc(OC(C)C)c(OC)c3)CC21 (stereo partly drawn) [I-202]	> 10	> 10
CNC(=O)[C@H](CCCc1ccc(O)cc1)NC(=O)C1CN(C(=O)Cc2c[nH]c3cc(Cl)ccc23)CC2CN(C(=O)c3ccc(OC(C)C)c(OC)c3)CC21 (stereo partly drawn) [I-115]	5 to 10	> 10
CNC(=O)[C@@H](NC(=O)C1CN(C(=O)Cc2c[nH]c3cc(Cl)ccc23)CC2CN(C(=O)c3cc(-c4ccccc4)n[nH]3)CC21)[C@@H](C)OCc1ccccc1 (stereo partly drawn) [I-252]	> 10	> 10
CNC(=O)[C@H](CCCC1CCC(C(F)(F)F)CC1)NC(=O)C1CN(C(=O)Cc2c[nH]c3cc(Cl)ccc23)CC2CN(C(=O)c3ccc(OC(C)C)c(OC)c3)CC21 (stereo partly drawn) [I-94]	> 10	> 10
CNC(=O)[C@@H](NC(=O)C1CN(C(=O)Cc2c[nH]c3cc(Cl)ccc23)CC2CN(C(=O)c3cc(-c4ccccc4)n[nH]3)CC21)[C@H](C)OCC1CCCCC1 (stereo partly drawn) [I-249, 5-(2-(6-chloro-1H-indol-3-yl)acetyl)-N-((2S,3S)-3-(cyclohexylmethoxy)-1-(methylamino)-1-oxobutan-2-yl)-2-(3-phenyl-1H-pyrazole-5-carbonyl)octahydro-1H-pyrrolo[3,4-c]pyridine-7-carboxamide]	> 10	> 10
CNC(=O)[C@H](CCCc1ccccc1)NC(=O)C1CN(C(=O)Cc2c[nH]c3cc(Cl)ccc23)CC2CN(C(=O)c3ccc4c(c3)c(OC)nn4C(C)C)CC21 (stereo partly drawn) [I-84]	0.5 to 5	> 10
CNC(=O)[C@H](CCCc1ccccc1)NC(=O)C1CN(C(=O)Cc2c[nH]c3ccc(C)cc23)CC2CN(C(=O)c3ccc(OC(C)C)c(OC)c3)CC21 (stereo partly drawn) [I-219]	0.5 to 5	> 10
CNC(=O)[C@H](CCCc1ccccc1)NC(=O)C1CN(C(=O)c2ncc(Cl)cn2)CC2CN(C(=O)c3ccc(OC(C)C)c(OC)c3)CC21 (stereo partly drawn) [I-196]	> 10	> 10
CNC(=O)[C@H](CCCc1ccc(F)cc1)NC(=O)C1CN(C(=O)Cc2c[nH]c3cc(Cl)ccc23)CC2CN(C(=O)c3ccc(OC(C)C)c(OC)c3)CC21 (stereo partly drawn) [I-144]	0.5 to 5	> 10
CNC(=O)[C@H](CCCc1ccccc1)NC(=O)C1CN(C(=O)Cc2c[nH]c3cc(Cl)ccc23)CC2CN(C(=O)c3cnc(-c4ccccc4)s3)CC21 (stereo partly drawn) [I-70]	> 10	> 10
CNC(=O)[C@H](CCCc1ccccc1)NC(=O)C1CN(C(=O)c2c[nH]c3cc(C)ccc23)CC2CN(C(=O)c3ccc(OC(C)C)c(OC)c3)CC21 (stereo partly drawn) [I-228]	> 10	> 10
COc1cc(C(=O)N2CC3CN(C(=O)Cc4c[nH]c5cc(Cl)ccc45)CC(C(=O)Nc4ccc(Cc5ccccc5)nc4)C3C2)ccc1OC(C)C (stereo not drawn) [I-241]	> 10	> 10
